Several values for one entry are separate records, joined by “and”; a condition that tells them apart may be missing. Equal values may be shown once. Read-outs that look alike come from different tables or passages of the source.
Legend:
[1] = system: Leishmania donovani axenic amastigotes (MHOM-ET-67/L82 strain); test: In vitro activity against L. donovani axenic amastigotes (resazurin); type: cell-based; details: for IC50: Leishmania donovani
Method: (§1) In vitro tests for determination of activity against axenic amastigotes of Leishmania donovani (MHOM-ET-67/L82 strain) and cytotoxicity against mammalian cells (L6-cell-line from rat skeletal myoblasts) as well as against intramacrophage amastigotes of L. donovani were conducted at Swiss TPH according to an established protocol as reported before. For a repetition of these methods, see Supplementary File.
Miltefosine (≥98%, Sigma-Aldrich, Buchs, Switzerland) and podophyllotoxin (≥98%, Sigma-Aldrich, Buchs, Switzerland) were used as positive controls. Growth inhibition assays were meant to give only preliminary information on whether fractions show any bioactivity or not. Due to this explorative nature, this was conducted once. IC50 values represent geometric means of two independent determinations and were calculated by linear regression from the sigmoidal dose inhibition curves using SoftmaxPro (Molecular Devices Cooperation, Sunnyvale, CA, USA) software.
(§2) Biological Assays (according to [14,15])
(§3) The following biological tests were performed by applying validated method s of the Swiss TPH as previously published and described below. […]
(§4) After that, resazurin solution
(§5) (12.5 mg in 100 mL water, 10 μL) was added to each well, and the incubation continued for 2–4 h more. Then, the plates were read using a Spectramax Gemini XS microplate fluorometer (Molecular Devices Cooperation, Sunnyvale, CA, USA) and excitation and emission wavelengths of 536 and 588 nm, respectively. Data were analyzed with the software Softmax Pro (Molecular Devices Cooperation, Sunnyvale, CA, USA), which calculated IC50 values by linear regression and 4‐parameter logistic regression from the sigmoidal dose inhibition curves. […]
In vitro activity against L. donovani axenic amastigotes. Amastigotes of L. donovani strain MHOM/ET/67/L82 were grown in axenic culture at 37 °C in SM medium at pH 5.4 supplemented with 10% heat‐inactivated fetal bovine serum under a 5% CO2 atmosphere. Aliquots containing […] amastigotes from the axenic culture (100 μL), with or without a serial compound dilution (as specified before), were seeded in 96‐well plates. After 70 h of incubation, the plates were inspected under an inverted microscope to assure growth of the controls and sterile conditions.
Then, resazurin solution (12.5 mg in 100 mL water, 10 μL) was added to each well and the plates incubated for another 2 h. Finally, the plates were read using the same conditions mentioned for T. brucei rhodesiense. Data were analyzed in the same way. Miltefosine was used as positive control. […]
(§6) Netherlands). Compounds were diluted with medium as indicated above before being added to parasite cultures incubated in RPMI 1640 medium without hypoxanthine, supplemented with HEPES (5.94 g/L), NaHCO3 (2.1 g/L), neomycin (100 U/mL), AlbumaxR (5 g/L) and washed human red cells A+ at 2.5% hematocrit (0.3% parasitemia).
Serial compound dilutions were prepared as before. The 96‐well plates were incubated in a humidified atmosphere at 37 °C; 4% CO2, 3% O2, 93% N2. After 48 h, 50 μL of 3H‐hypoxanthine (0.5 μCi) was added to each well of the plate. The plates were incubated for a further 24 h under the same conditions. […] The dried filters were inserted into a plastic foil with 10 mL of scintillation fluid and counted in a Betaplate™ liquid scintillation counter (Wallac, Zurich, Switzerland). […]

[2] = In vitro cytotoxicity with L-6 cells (resazurin); type: cell-based; details: rat, read-out: Cytotoxicity against L6 Rat Skeletal Myoblasts IC50
Method: as §1, §2, §3, §4, §5
Aliquots containing 105 amastigotes from the axenic culture (100 μL), with or without a serial compound dilution (as specified before), were seeded in 96‐well plates. After 70 h of incubation, the plates were inspected under an inverted microscope to assure growth of the controls and sterile conditions. […]
as §6
Serial compound dilutions were prepared as before. The 96‐well plates were incubated in a humidified atmosphere at 37 °C; 4% CO2, 3% O2, 93% N2. After 48 h, 50 μL of 3H‐hypoxanthine (0.5 μCi) was added to each well of the plate. The plates were incubated for a further 24 h under the same conditions. The plates were then harvested with a Betaplate™ cell harvester (Wallac, Zurich, Switzerland), and the red blood cells were transferred onto a glass fiber filter then washed with distilled water. The dried filters were inserted into a plastic foil with 10 mL of scintillation fluid and counted in a Betaplate™ liquid scintillation counter (Wallac, Zurich, Switzerland). […]
(§7) Serial compound dilutions prepared, as before, were us ed. […] Finally, the plates were read, and the data were treated as mentioned before. […]
(§8) Extracellular amast igotes were removed by triplicate washing after further 24 h. […] Images of the plates were recorded with an ImageXpress XLS (MD) microscope and automatically analyzed using the MetaXpress Software. […]

[3] = system: Leishmania donovani intracellular amastigotes; test: In vitro activity against intracellular amastigotes of L. donovani in peritoneal murine macrophages; type: cell-based; details: Macrophage
Method: as §1, §2, §3
Serial compound dilutions were prepared as before. […] The dried filters were inserted into a plastic foil with 10 mL of scintillation fluid and counted in a Betaplate™ liquid scintillation counter (Wallac, Zurich, Switzerland). […]
as §7
as §8, with “Software. Infected and non‐infected macrophages, as well as the number of intracellular parasites, were recorded.” for “Software.”

[4] = system: Leishmania donovani axenic amastigotes (MHOM-ET-67/L82 strain); parameters: method as in PMID 21157686; details: cited from earlier work
[5] = system: P. falciparum NF54 strain erythrocytic stages; parameters: method as in PMID 21157686; details: cited from earlier work
[6] = geometric mean of two independent determinations
[7] = geometric mean of two independent determinations (lower; upper)

| Compound | SI (selectivity index) ([1]; L6 cytotoxicity vs L. donovani axenic amastigotes) | IC50 [1, 6] [nM] | IC50 [1, 7] [µg/mL] | IC50 at 70 h [2, 7] [µg/mL] | IC50 at 70 h [2, 6] [µM] | IC50 [3] | activity against L. donovani axenic amastigotes [4] | antiplasmodial activity in vitro [5] |
| --- | --- | --- | --- | --- | --- | --- | --- | --- |
| C[C@H]1[C@H](C)CC[C@]2(C)CC[C@]3(C)C(=CC[C@@H]4[C@@]5(C)CC[C@@H](O)[C@](C)(C(=O)O)[C@@H]5CC[C@]43C)[C@H]12 [Compound 3, β-boswellic acid] | 6.2 | 5300 | 2.4 | 15 | 33 |  |  |  |
| CCCCCCCCCCCCCCCCOP(=O)([O-])OCC[N+](C)(C)C [PCM, miltefosine] |  | 120 | 0.047 |  |  | 1.9 µg/mL and 4.7 µM |  |  |
| COc1cc([C@@H]2c3cc4c(cc3[C@H](O)[C@H]3COC(=O)[C@H]23)OCO4)cc(OC)c1OC [PCP, podophyllotoxin] |  |  |  | 0.009 | 0.02 |  |  |  |
| C/C1=C\CC/C(C)=C/C[C@](O)(C(C)C)CC/C(C)=C/CC1 [Serratol] |  |  |  |  |  |  | essentially inactive | antiplasmodial activity |

Source: PMC8232742, “Boswellic Acids Show In Vitro Activity against Leishmania donovani” (Molecules, 2021)
